Blank lines part the entries; values can stand above or below the molecule they belong to.
Tests used:
Format in all cases: binding
KRAS D92C/WT = biological target: T1, KRAS D92C/WT (Homo sapiens, UniProt P01116, D92C); assay: Covalent modification of KRAS mutant by competition probes (TOF mass spectrometry, Agilent RapidFire)
T1 construct: made in house
Protocol: (§1) KRAS mutant proteins were produced with one substituted amino acid selected from E62C, D92C, and H95C and with either glycine at the 12 position (WT) or an additional mutation to aspartic acid at the 12 position (G12D) relative to SEQ ID NO: 1 when optimally aligned. These mutations are depicted on an X-ray crystal structure in FIG. 2. These mutants were tested for reactivity (e.g., covalent modification of the KRAS mutant) with a panel of competition probes that bind the Switch II binding pocket and covalently modify the substituted amino acid with appropriately placed electrophiles based on modeling/docking studies. Screening was carried out by time-of-flight (TOF) mass spectrometry on an Agilent RapidFire system. […] Competition probe reactivity with the G12D mutant or other 12 position mutants may be optimized by iterative structural modification and testing.

KRAS E62C/G12D = biological target: T2, KRAS E62C/G12D (Homo sapiens, UniProt P01116, E62C/G12D); assay: as above
T2 construct: made in house
Protocol: as §1

KRAS D92C/G12D = biological target: T3, KRAS D92C/G12D (Homo sapiens, UniProt P01116, D92C/G12D); assay: as above
T3 construct: made in house
Protocol: as §1

KRAS H95C/G12D = biological target: T4, KRAS H95C/G12D (Homo sapiens, UniProt P01116, G12D/H95C); assay: as above
T4 construct: made in house
Protocol: as §1

KRAS E62C/WT = biological target: T5, KRAS E62C/WT (Homo sapiens, UniProt P01116, E62C); assay: as above
T5 construct: made in house
Protocol: as §1

KRAS H95C/WT = biological target: T6, KRAS H95C/WT (Homo sapiens, UniProt P01116, H95C); assay: as above
T6 construct: made in house
Protocol: as §1

RALA G23C = biological target: T7, RALA G23C (Homo sapiens, UniProt P11233, G23C); assay: Rate constant of covalent reaction of competition probes with RALA mutant (mass spectrometry)
T7 construct: (residues 11-183, either WT or G23C); hexahistidine (TEV-cleavable); made in house; host or cells: Escherichia coli BL21 (DE)
T7 sequence (P11233 11-183 G23C): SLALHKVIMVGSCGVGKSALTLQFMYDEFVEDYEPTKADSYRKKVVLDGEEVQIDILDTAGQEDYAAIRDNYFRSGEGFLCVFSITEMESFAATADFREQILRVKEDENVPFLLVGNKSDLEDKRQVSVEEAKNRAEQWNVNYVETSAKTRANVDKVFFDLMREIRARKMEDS
Protocol: Hexahistidine-tagged recombinant human RalA (“hexahistidine” disclosed as SEQ ID NO: 49) (residues 11-183, either WT or G23C) was transformed into Escherichia coli (BL21 (DE)). After the bacterial grew to an OD(600) of 0.4-0.6 in Terrific Broth containing 30 mg/L kanamycin at 37° C., induction was carried out at 18° C. using 0.5 mM IPTG and growth was continued at 18° C. for about 18 h. The bacteria were harvested by centrifugation and the obtained pellet was either stored at −80° C. or used freshly for the subsequent steps.
(§2) RALA mutant proteins were produced with one mutation to cysteine at the 23 position (G23C) relative to SEQ ID NO: 8 when optimally aligned. KRAS mutant proteins were produced with one mutation to cysteine at the 12 position (G12C) relative to SEQ ID NO: 1 when optimally aligned. The RALA and KRAS mutants were tested for reactivity (e.g., covalent modification of the mutant) with a panel of competition probes that bind the Switch II binding pocket and covalently modify the substituted amino acid with appropriately placed electrophiles based on modeling/docking studies. One such inhibitor covalently bound to RAS (via G12) is depicted in FIG. 2. Screening was carried out by mass spectrometry on an Agilent RapidFire or ThermoScientific Q Exactive system.

KRAS G12C = biological target: T8, KRAS G12C (Homo sapiens, UniProt P01116, G12C); assay: Rate constant of covalent reaction of competition probes with KRAS mutant (mass spectrometry)
T8 construct: made in house
Protocol: as §2

Structure (SMILES): C=CC(=O)N1CCC(Nc2nc(N3CCN(C(C)=O)CC3)c3cc(Cl)c(-c4c(O)cccc4F)c(F)c3n2)C1 (stereo not drawn) [CP-006]
% Covalent Modification with Indicated Protein at 6 hr, D92C/WT (KRAS D92C/WT; probe 30 μM): 93% | % Covalent Modification with Indicated Protein at 6 hr, E62C/G12D (KRAS E62C/G12D; probe 30 μM): 2% | % Covalent Modification with Indicated Protein at 6 hr, D92C/G12D (KRAS D92C/G12D; probe 30 μM): 5% | % Covalent Modification with Indicated Protein at 6 hr, H95C/G12D (KRAS H95C/G12D; probe 30 μM): 4% | % Covalent Modification with Indicated Protein at 6 hr, E62C/WT (KRAS E62C/WT; probe 30 μM): 14% | % Covalent Modification with Indicated Protein at 6 hr, H95C/WT (KRAS H95C/WT; probe 30 μM): 19%

Structure (SMILES): C=CS(=O)(=O)NC1CCCN(c2nc(N3CCN(C(C)=O)CC3)c3cc(Cl)c(-c4c(O)cccc4F)c(F)c3n2)C1 (stereo not drawn) [CP-001]
% Covalent Modification with Indicated Protein at 6 hr, D92C/WT (KRAS D92C/WT; probe 30 μM): 97% | % Covalent Modification with Indicated Protein at 6 hr, E62C/G12D (KRAS E62C/G12D; probe 30 μM): 4% | % Covalent Modification with Indicated Protein at 6 hr, D92C/G12D (KRAS D92C/G12D; probe 30 μM): 12% | % Covalent Modification with Indicated Protein at 6 hr, H95C/G12D (KRAS H95C/G12D; probe 30 μM): 60% | % Covalent Modification with Indicated Protein at 6 hr, E62C/WT (KRAS E62C/WT; probe 30 μM): 72%

Structure (SMILES): C=CC(=O)NC1CCN(c2nc(N3CCN(C(C)=O)CC3)c3cc(Cl)c(-c4c(O)cccc4F)c(F)c3n2)C1 (stereo not drawn) [CP-004]
% Covalent Modification with Indicated Protein at 6 hr, D92C/WT (KRAS D92C/WT; probe 100 μM): 4% | % Covalent Modification with Indicated Protein at 6 hr, E62C/G12D (KRAS E62C/G12D; probe 100 μM): 1% | % Covalent Modification with Indicated Protein at 6 hr, H95C/G12D (KRAS H95C/G12D; probe 100 μM): 2% | % Covalent Modification with Indicated Protein at 6 hr, E62C/WT (KRAS E62C/WT; probe 100 μM): 3%

Structure (SMILES): C=CS(=O)(=O)N1CCC(Nc2nc(N3CCN(C(C)=O)CC3)c3cc(Cl)c(-c4c(O)cccc4F)c(F)c3n2)C1 (stereo not drawn) [CP-007]
% Covalent Modification with Indicated Protein at 6 hr, D92C/WT (KRAS D92C/WT; probe 10 μM): 99% | % Covalent Modification with Indicated Protein at 6 hr, E62C/G12D (KRAS E62C/G12D; probe 10 μM): 19% | % Covalent Modification with Indicated Protein at 6 hr, D92C/G12D (KRAS D92C/G12D; probe 10 μM): 29% | % Covalent Modification with Indicated Protein at 6 hr, H95C/G12D (KRAS H95C/G12D; probe 10 μM): 17% | % Covalent Modification with Indicated Protein at 6 hr, E62C/WT (KRAS E62C/WT; probe 10 μM): 96% | % Covalent Modification with Indicated Protein at 6 hr, H95C/WT (KRAS H95C/WT; probe 10 μM): 43%

Structure (SMILES): C=CC(=O)N1CC(N2CCN(C(=O)CNc3cc(C4(C)CC4)c(Cl)cc3O)CC2)C1 [CP-008]
Rate Constant for Reaction with Indicated Protein, KRAS G12C (KRAS G12C): 76 M⁻¹ s⁻¹ | Rate Constant for Reaction with Indicated Protein, RALA G23C (RALA G23C): <0.2 M⁻¹ s⁻¹

Structure (SMILES): C=CC(=O)N1CCN(c2ccc(-c3cc(O)ccc3Cl)cc2C#N)CC1 [CP-009]
Rate Constant for Reaction with Indicated Protein, KRAS G12C (KRAS G12C): 5.8 M⁻¹ s⁻¹ | Rate Constant for Reaction with Indicated Protein, RALA G23C (RALA G23C): <0.2 M⁻¹ s⁻¹

Structure (SMILES): C=CC(=O)N1CCN(c2ncnc3cc(Cl)c(-c4ccc(Cl)cc4)cc23)CC1 [CP-013]
Rate Constant for Reaction with Indicated Protein, RALA G23C (RALA G23C): 10.2 M⁻¹ s⁻¹

Next, values leading:

Rate Constant for Reaction with Indicated Protein, RALA G23C (RALA G23C): 9.0 M⁻¹ s⁻¹
Structure (SMILES): C=CC(=O)N1CCN(c2ncnc3cc(Cl)c(-c4ccc(Br)cc4)cc23)CC1 [CP-015]

Rate Constant for Reaction with Indicated Protein, RALA G23C (RALA G23C): 17 M⁻¹ s⁻¹
Structure (SMILES): C=CC(=O)N1CCN(c2ncnc3cc(Cl)c(-c4cccs4)cc23)CC1 [CP-018]

Rate Constant for Reaction with Indicated Protein, RALA G23C (RALA G23C): 2.6 M⁻¹ s⁻¹
Structure (SMILES): C=CC(=O)N1CCN(c2ncnc3cc(Cl)c(-c4ccc(C#N)cc4)cc23)CC1 [CP-016]

Rate Constant for Reaction with Indicated Protein, RALA G23C (RALA G23C): 4.0 M⁻¹ s⁻¹
Structure (SMILES): C=CC(=O)N1CCN(c2ncnc3cc(Cl)c(-c4ccccc4)cc23)CC1 [CP-014]
